Where a name gives a salt, the structure may show the parent alone.
Tests used:
Assay type in all cases: cell-based, Staphylococcus aureus
vraR transcription = assay: Tertiary screen: qRT-PCR of vraR in strain 923; settings: for Effect on vraSR Transcription: Compound alone: compound 10 μM, no oxacillin; for Effect on vraSR Transcription: With oxacillin: compound 10 μM + oxacillin 2 μg/mL; for classification of lux screen result against qRT-PCR (true/false repressor or stimulator): in the presence of oxacillin
[1] = system: vraSR transcription (Pvra::lux); settings: compound 10 μM + oxacillin 2 μg/mL; for RL avg (relative luminescence): ratio of LU to oxacillin alone, four runs
Experimental: (§1) In the secondary screen each microtiter plate contained either cells in TSB alone (16 replicates), cells with oxacillin (2 μg/mL, 31 replicates), or cells with test compound and oxacillin (2 μg/mL, 49 wells). Each compound was assayed in four separate biological replicates.
(§2) All compounds classified in the primary screen as synergists that were vraSR-stimulating or -repressing (as shown in Table 8) were screened in a secondary assay for their effects on both growth and Pvra::lux induction by oxacillin. […] Each compound was tested four separate times at 10 μM in the presence of oxacillin (2 μg/mL) and luminescence was measured every 15 minutes. Relative growth (RG) and relative luminescence (RL) was calculated as the ratio between the OD600 or max LU value in the presence of compound and oxacillin over the average from pooled control values obtained from the same plate. […] Compounds that produced an average RG (ratio of the OD600 of the culture grown with test compound combined with oxacillin to that of oxacillin alone) of <0.8 were classified as oxacillin synergists or potentiators. The relative luminescence (RL) was the ratio of the LU produced in the presence of the test compound combined with oxacillin to that produced by oxacillin alone. Compounds were classified as “vraSR repressors” (mean RL of <0.8), “vraSR stimulators”, (mean RL>1.2), and “vraSR neutral” (mean RL between 0.80-1.2). […] In contrast, 34 compounds had no effect on growth in the presence of oxacillin (“un” in the OD600 category). Among the oxacillin potentiators, there were 2 vraSR stimulators, 3 vraSR neutral compounds and 10 vraSR repressors.

[2] = system: MRSA strain USA300 Pvra-lux; settings: compound 10 μM + oxacillin 2 μg/mL; for RG avg (relative growth): ratio of OD600 to oxacillin alone, four runs
Experimental: as §1, §2

Row | Compound | Effect on vraSR Transcription: Compound alone (vraR transcription; qRT-PCR of vraR) | Effect on vraSR transcription [1] | RL avg (relative luminescence) [1] | OD600 category [2] | RG avg (relative growth) [2] | Effect on vraSR Transcription: With oxacillin (vraR transcription; qRT-PCR of vraR, hydrochloride) | Effect on vraSR Transcription: With oxacillin (vraR transcription; qRT-PCR of vraR) | Effect on vraSR Transcription: With oxacillin (vraR transcription; qRT-PCR of vraR, listed as diethylstilbesterol) | Effect on vraSR transcription (summary) (vraR transcription; qRT-PCR of vraR, alone and with oxacillin) | Effect on vraSR Transcription: With oxacillin (vraR transcription; qRT-PCR of vraR, listed as fluspirilene) | classification of lux screen result against qRT-PCR (true/false repressor or stimulator) (vraR transcription)
1 | CCCCc1oc2ccccc2c1C(=O)c1cc(I)c(OCCN(CC)CC)c(I)c1 [Amiodarone hydrochloride] | stimulate | stimulate (“vraSR stimulators”, (mean RL>1.2)) | 0.68 | inhibited (of <0.8 were classified as oxacillin synergists or potentiators) | 0.84 | – | – | – | – | – | –
2 | CCN1CCN(C(=O)N[C@@H](C(=O)N[C@@H]2C(=O)N3C(C(=O)O)=C(CSc4nnnn4C)CS[C@H]23)c2ccc(O)cc2)C(=O)C1=O [Cefoperazone dihydrate] | stimulate | neutral (“vraSR neutral” (mean RL between 0.80-1.2)) | 0.77 | inhibited (of <0.8 were classified as oxacillin synergists or potentiators) | 0.79 | – | – | – | – | – | –
3 | CN(C)CCn1nnnc1SCC1=C(C(=O)O)N2C(=O)[C@@H](NC(=O)Cc3csc(N)n3)[C@H]2SC1 [Cefotiam hydrochloride] | stimulate | neutral (“vraSR neutral” (mean RL between 0.80-1.2)) | 0.64 | inhibited (of <0.8 were classified as oxacillin synergists or potentiators) | 0.64 | vraR activator | – | – | – | – | –
4 | CC(=O)OCC1=C(C(=O)O)N2C(=O)[C@@H](NC(=O)Cc3cccs3)[C@H]2SC1 [Cephalothin sodium salt] | stimulate | neutral (“vraSR neutral” (mean RL between 0.80-1.2)) | 0.36 | inhibited (of <0.8 were classified as oxacillin synergists or potentiators) | 0.45 | – | – | – | – | – | –
5 | CC/C(=C(/CC)c1ccc(O)cc1)c1ccc(O)cc1 [Diethylstilbestrol] | None | repress (“vraSR repressors” (mean RL of <0.8)) | 0.26 | inhibited (of <0.8 were classified as oxacillin synergists or potentiators) | 0.41 | – | super-stimulate | enhanced oxacillin's effect on vraR transcription | – | – | –
6 | O=C1NCN(c2ccccc2)C12CCN(CCCC(c1ccc(F)cc1)c1ccc(F)cc1)CC2 [Fluspirilen] | none | stimulate (“vraSR stimulators”, (mean RL>1.2)) | 0.28 | inhibited (of <0.8 were classified as oxacillin synergists or potentiators) | 0.47 | – | vraR neutral | – | No effect | none | –
7 | C#C[C@]1(O)CC[C@H]2[C@@H]3CCC4=CCCC[C@@H]4[C@H]3CC[C@@]21C [Lynestrenol] | stimulate | repress (“vraSR repressors” (mean RL of <0.8)) | 0.26 | inhibited (of <0.8 were classified as oxacillin synergists or potentiators) | 0.47 | – | – | – | – | – | –
8 | CC1CS(=O)(=O)CCN1/N=C/c1ccc([N+](=O)[O-])o1 (centres unmarked) [Nifurtimox] | – | repress (“vraSR repressors” (mean RL of <0.8)) | 0.95 | un (no effect on growth in the presence of oxacillin (“un” in the OD600 category)) | 0.97 | – | – | – | – | – | –
9 | C[C@@H]1[C@H](O)[C@@H](C)/C=C/C=C/CC/C=C/C=C/C=C/C=C/C(O[C@H]2O[C@H](C)[C@@H](O)[C@H](N)[C@@H]2O)CC2O[C@](O)(CC(O)C(O)CCC(O)CC(O)CC(O)CC(=O)O[C@H]1C)CC(O)C2C(=O)O (some centres unmarked) [Nystatine] | – | neutral (“vraSR neutral” (mean RL between 0.80-1.2)) | 1.04 | un (no effect on growth in the presence of oxacillin (“un” in the OD600 category)) | 1.00 | – | – | – | – | – | –
10 | CO[C@H]1C[C@H](O[C@H]2[C@H](C)[C@@H](O[C@@H]3O[C@H](C)C[C@H](N(C)C)[C@H]3O)[C@@H](C)C[C@@]3(CO3)C(=O)[C@H](C)[C@@H](O)[C@@H](C)[C@@H](C)OC(=O)[C@@H]2C)O[C@@H](C)[C@@H]1O [Oleandomycin phosphate, (3R,5R,6S,7R,8R,11R,12S,13R,14S,15S)-14-((2S,3R,4S,6R)-4-(dimethylamino)-3-hydroxy-6-methyltetrahydro-2H-pyran-2-yloxy)-6-hydroxy-12-((2R,4S,5S,6S)-5-hydroxy-4-methoxy-6-methyltetrahydro-2H-pyran-2-yloxy)-5,7,8,11,13,15-hexamethyl-1,9-dioxaspiro[2.13]hexadecane-4,10-dione] | – | repress (“vraSR repressors” (mean RL of <0.8)) | 0.20 | inhibited (of <0.8 were classified as oxacillin synergists or potentiators) | 0.19 | – | repress | – | – | – | true vraSR expression repressors
11 | CCN(CC)CCc1nc(-c2ccccc2)no1.O=C(O)CC(O)(CC(=O)O)C(=O)O [Oxalamine citrate salt] | – | neutral (“vraSR neutral” (mean RL between 0.80-1.2)) | 1.00 | un (no effect on growth in the presence of oxacillin (“un” in the OD600 category)) | 1.03 | – | – | – | – | – | –
12 | CC(Oc1ccccc1)C(=O)N[C@@H]1C(=O)N2[C@@H]1SC(C)(C)[C@@H]2C(=O)O (some centres unmarked) [Phenethicillin potassium salt] | – | neutral (“vraSR neutral” (mean RL between 0.80-1.2)) | 0.88 | un (no effect on growth in the presence of oxacillin (“un” in the OD600 category)) | 0.94 | – | – | – | – | – | –
13 | CN(C)CCCN1c2ccccc2Sc2ccccc21 [Promazine hydrochloride] | – | neutral (“vraSR neutral” (mean RL between 0.80-1.2)) | 1.08 | un (no effect on growth in the presence of oxacillin (“un” in the OD600 category)) | 1.09 | – | – | – | – | – | –
14 | O=C(c1ccc(OCCN2CCCCC2)cc1)c1c(-c2ccc(O)cc2)sc2cc(O)ccc12 [Raloxifene hydrochloride] | – | neutral (“vraSR neutral” (mean RL between 0.80-1.2)) | 0.85 | un (no effect on growth in the presence of oxacillin (“un” in the OD600 category)) | 0.97 | – | – | – | – | – | –
15 | C[n+]1cc2c3c(ccc2c2ccc4cc5c(cc4c21)OCO5)OCO3 [Sanguinarine] | – | repress (“vraSR repressors” (mean RL of <0.8)) | 0.47 | inhibited (of <0.8 were classified as oxacillin synergists or potentiators) | 0.78 | – | – | – | – | – | –
16 | CN[C@@H]1[C@H](O)[C@H](NC)[C@H]2O[C@@]3(O)C(=O)C[C@@H](C)O[C@H]3O[C@@H]2[C@H]1O [Spectinomycin dihydrochloride] | – | neutral (“vraSR neutral” (mean RL between 0.80-1.2)) | 0.77 | un (no effect on growth in the presence of oxacillin (“un” in the OD600 category)) | 0.89 | – | – | – | – | – | –
17 | Cc1ccnc(NS(=O)(=O)c2ccc(N)cc2)n1 [Sulfamerazine] | – | neutral (“vraSR neutral” (mean RL between 0.80-1.2)) | 1.01 | un (no effect on growth in the presence of oxacillin (“un” in the OD600 category)) | 0.99 | – | – | – | – | – | –
18 | NS(=O)(=O)c1cc2c(cc1Cl)NC(C(Cl)Cl)NS2(=O)=O (centres unmarked) [Trichlormethiazide] | – | neutral (“vraSR neutral” (mean RL between 0.80-1.2)) | 1.06 | un (no effect on growth in the presence of oxacillin (“un” in the OD600 category)) | 1.10 | – | – | – | – | – | –
19 | OC(Cn1cncn1)(Cn1cncn1)c1ccc(F)cc1F [fluconazole] | – | – | – | – | – | – | – | – | – | – | false stimulator
20 | Trimeprazine tartrate | – | neutral (“vraSR neutral” (mean RL between 0.80-1.2)) | 0.96 | un (no effect on growth in the presence of oxacillin (“un” in the OD600 category)) | 1.04 | – | – | – | – | – | –

Source: patent publication US20150283120A1, “ANTIBIOTIC METHODS AND COMPOSITIONS FOR BACTERIA INFECTIONS” (THE UNIVERSITY OF CHICAGO, priority 2012, published 2015)
